Source: PMC4706877, “Antibacterial and Cytotoxic Activity of Compounds Isolated from Flourensia oolepis” (Evidence-based Complementary and Alternative Medicine : eCAM, 2015)

System: K562 cells
Test: Cell cycle distribution by flow cytometry (PI)
Format: cell-based, human
Conditions: 2 × IC50, 72 h
Protocol: […] After treatment, cells were harvested and washed twice with ice cold PBS. Then, cells were fixed with 70% cold ethanol and kept at 4°C for 24 h. Before analysis, the cells were washed twice with PBS and stained with a solution containing propidium iodide (PI, 50 μg/mL, Sigma-Aldrich CO, USA) and RNase A (100 μg/mL, Sigma-Aldrich CO, USA) in PBS (pH 7.4) for 30 min in the dark. DNA content was evaluated by flow cytometry. The relative distribution of at least 20,000 cells was analyzed using FlowJo software version 7.6.2 (Tree Star, Inc. OR, USA).

Q: How did the “cells in the G2/M phase” value turn out when `O=C(/C=C/c1ccccc1)c1ccc(O)cc1O` [Compound 1, 2′,4′-dihydroxychalcone] was run?
A: The value was 19%.

Q: What about the “hypodiploid sub-G1 population” value (ethanol control 1%) of the same compound?
A: Its value is 25%.
